Measurements: ChEMBL document CHEMBL1156230, “Identification of phenylsulfone-substituted quinoxaline (WYE-672) as a tissue selective liver X-receptor (LXR) agonist” (J Med Chem, 2010)
Active and inactive are the calls of the source. The rule behind the calls is not given here.

What was measured:
[1] = Plasma concentration in high fat/high cholesterol fed LDLR-deficient mouse administered with diet for 8 weeks measured after 3 hrs of last dose; assay type: ADME, organism-based; conditions: po
[2] = system: Mus musculus; assay: Antiatherosclerotic activity against high fat/high cholesterol fed LDLR-deficient mouse assessed as ldlr gene regulation at 0.6 mg/kg administered with diet for 7 days by Experion chip analysis; assay type: functional, organism-based; set-up: dose 0.6 mg/kg
[3] = system: Mus musculus; assay: Antiatherosclerotic activity against high fat/high cholesterol fed LDLR-deficient mouse assessed as pltp gene regulation at 3 mg/kg administered with diet for 7 days by Experion chip analysis; assay type: functional, organism-based; set-up: dose 3 mg/kg
[4] = Half life in C57 mouse at 10 mg/kg, po; assay type: ADME, organism-based; set-up: dose 10 mg/kg, route oral; conditions: in vivo
[5] = Cmax in C57 mouse at 10 mg/kg, po; assay type: ADME, organism-based; set-up: dose 10 mg/kg, route oral; conditions: in vivo
[6] = AUC (0 to infinity) in C57 mouse at 10 mg/kg, po; assay type: ADME, organism-based; set-up: time infinity, dose 10 mg/kg, route oral; conditions: plasma
[7] = biological target: T1, Peroxisome proliferator-activated receptor gamma (Homo sapiens) (UniProt P37231); assay: Binding affinity to PPARgamma
T1 sequence (whole entry): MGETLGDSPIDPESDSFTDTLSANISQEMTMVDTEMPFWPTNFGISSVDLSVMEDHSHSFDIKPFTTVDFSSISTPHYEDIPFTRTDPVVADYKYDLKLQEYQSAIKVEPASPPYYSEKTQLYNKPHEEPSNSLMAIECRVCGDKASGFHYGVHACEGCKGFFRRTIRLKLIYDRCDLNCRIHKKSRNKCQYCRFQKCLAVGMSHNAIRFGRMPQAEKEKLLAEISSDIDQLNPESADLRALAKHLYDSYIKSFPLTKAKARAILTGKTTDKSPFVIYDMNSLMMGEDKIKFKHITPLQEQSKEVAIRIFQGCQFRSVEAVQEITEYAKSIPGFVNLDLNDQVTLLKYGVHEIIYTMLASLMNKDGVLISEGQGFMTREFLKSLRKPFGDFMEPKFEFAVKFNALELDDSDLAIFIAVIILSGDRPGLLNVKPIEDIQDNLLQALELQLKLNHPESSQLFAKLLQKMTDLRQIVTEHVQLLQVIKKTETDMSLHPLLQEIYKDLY

[8] = biological target: T2, Nuclear receptor subfamily 1 group I member 2 (Homo sapiens, UniProt O75469); assay: Binding affinity to PXR
T2 sequence (O75469 whole entry): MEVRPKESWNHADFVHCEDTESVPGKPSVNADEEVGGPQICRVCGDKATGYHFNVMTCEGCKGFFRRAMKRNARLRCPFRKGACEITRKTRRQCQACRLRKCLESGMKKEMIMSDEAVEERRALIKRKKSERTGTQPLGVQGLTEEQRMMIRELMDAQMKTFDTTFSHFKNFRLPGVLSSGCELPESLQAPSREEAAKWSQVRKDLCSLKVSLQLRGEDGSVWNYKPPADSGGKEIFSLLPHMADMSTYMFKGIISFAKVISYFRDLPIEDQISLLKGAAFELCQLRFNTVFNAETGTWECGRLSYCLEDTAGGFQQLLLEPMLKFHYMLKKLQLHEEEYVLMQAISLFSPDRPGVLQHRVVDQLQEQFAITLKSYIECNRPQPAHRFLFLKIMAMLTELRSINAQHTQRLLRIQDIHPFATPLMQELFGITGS

[9] = biological target: T3, Glucocorticoid receptor (Homo sapiens) (UniProt P04150); assay: Binding affinity to glucocorticoid receptor
T3 sequence (whole entry): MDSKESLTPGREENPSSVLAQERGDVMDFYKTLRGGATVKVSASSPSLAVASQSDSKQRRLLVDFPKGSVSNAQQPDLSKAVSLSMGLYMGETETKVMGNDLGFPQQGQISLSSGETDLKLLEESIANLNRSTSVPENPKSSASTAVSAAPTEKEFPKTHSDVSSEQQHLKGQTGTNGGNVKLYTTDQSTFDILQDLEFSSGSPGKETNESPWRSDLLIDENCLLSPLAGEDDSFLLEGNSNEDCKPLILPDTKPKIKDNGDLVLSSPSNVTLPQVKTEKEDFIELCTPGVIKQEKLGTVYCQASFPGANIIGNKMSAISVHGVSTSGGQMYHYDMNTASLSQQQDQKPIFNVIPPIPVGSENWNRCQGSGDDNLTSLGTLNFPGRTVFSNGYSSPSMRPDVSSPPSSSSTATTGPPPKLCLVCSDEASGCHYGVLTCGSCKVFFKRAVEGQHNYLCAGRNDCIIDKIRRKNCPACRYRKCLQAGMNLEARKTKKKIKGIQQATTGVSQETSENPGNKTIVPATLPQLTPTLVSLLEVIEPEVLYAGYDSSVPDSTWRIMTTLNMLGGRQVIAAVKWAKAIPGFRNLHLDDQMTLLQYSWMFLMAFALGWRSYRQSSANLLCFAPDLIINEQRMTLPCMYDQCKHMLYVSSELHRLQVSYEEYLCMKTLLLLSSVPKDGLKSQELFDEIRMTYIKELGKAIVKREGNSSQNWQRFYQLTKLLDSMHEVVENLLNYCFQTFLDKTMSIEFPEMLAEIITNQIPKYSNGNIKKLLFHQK

[10] = Binding affinity to thyroid hormone receptor
[11] = system: Mus musculus; assay: Antiatherosclerotic activity against high fat/high cholesterol fed LDLR-deficient mouse assessed as reduction in aortic arch lesion burden at 3 mg/kg/day administered with diet relative to control; assay type: functional, Pharyngeal arch artery; set-up: scale not given: the % may be the effect or the level left
[12] = Plasma concentration in high fat/high cholesterol fed LDLR-deficient mouse at 0.6 mg/kg, qd administered with diet for 8 weeks measured after 3 hrs of last dose; assay type: ADME, organism-based; set-up: dose 0.6 mg/kg; conditions: po
[13] = biological target: T4, Oxysterols receptor LXR-beta (Homo sapiens, UniProt P55055); assay: Displacement of [3H]T0901317 from human LXRbeta ligand binding domain
T4 sequence (P55055 whole entry, the tested form may be a part): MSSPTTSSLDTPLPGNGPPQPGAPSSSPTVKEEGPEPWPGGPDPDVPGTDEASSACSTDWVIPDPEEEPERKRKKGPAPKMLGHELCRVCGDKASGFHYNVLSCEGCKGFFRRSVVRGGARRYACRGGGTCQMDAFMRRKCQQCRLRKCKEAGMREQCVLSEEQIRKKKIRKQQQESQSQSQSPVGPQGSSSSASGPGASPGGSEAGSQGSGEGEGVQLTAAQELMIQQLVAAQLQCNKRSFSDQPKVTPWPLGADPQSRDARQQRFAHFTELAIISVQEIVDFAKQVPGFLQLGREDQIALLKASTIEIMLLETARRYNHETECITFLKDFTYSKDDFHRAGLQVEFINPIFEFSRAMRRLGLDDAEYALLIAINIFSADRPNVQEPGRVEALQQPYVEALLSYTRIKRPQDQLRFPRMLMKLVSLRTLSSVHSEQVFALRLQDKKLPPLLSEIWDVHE

[14] = system: THP-1; assay: Induction of [3H]cholesterol efflux in human THP1 cells assessed as lipid accumulation; assay type: functional, cell-based
[15] = system: THP-1; assay: Induction of [3H]cholesterol efflux in human THP1 cells assessed as lipid accumulation relative to T0901317; assay type: functional
[16] = biological target: T4, Oxysterols receptor LXR-beta
[17] = biological target: Oxysterols receptor LXR-alpha (Homo sapiens, UniProt Q13133)
Chain of Oxysterols receptor LXR-alpha (Q13133 whole entry, looked up): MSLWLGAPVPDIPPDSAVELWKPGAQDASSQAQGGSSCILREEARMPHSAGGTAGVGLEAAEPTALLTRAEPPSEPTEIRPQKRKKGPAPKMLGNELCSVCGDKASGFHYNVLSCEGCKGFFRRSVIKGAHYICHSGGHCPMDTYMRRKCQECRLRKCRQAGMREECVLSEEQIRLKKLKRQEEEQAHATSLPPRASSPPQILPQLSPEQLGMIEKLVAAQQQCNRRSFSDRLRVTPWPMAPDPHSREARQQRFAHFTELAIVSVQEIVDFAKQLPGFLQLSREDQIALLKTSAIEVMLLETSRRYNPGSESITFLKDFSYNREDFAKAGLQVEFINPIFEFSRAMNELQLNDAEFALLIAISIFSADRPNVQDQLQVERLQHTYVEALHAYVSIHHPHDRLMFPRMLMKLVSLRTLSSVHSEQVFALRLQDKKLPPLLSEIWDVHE

[18] = system: HepG2; assay: Agonist activity at LXR in human HepG2 cells assessed as lipid accumulation relative to T0901317

concentration at 3 h [1]	half-life [4]	Cmax [5]	AUC(0-inf) [6]	Activity [7]	Activity [8]	Activity [9]	Activity [10]	concentration at 3 h [12]	IC50 [13]	EC50 [14]	EC50 [16]	EC50 [17]	SMILES	Activity [2]	Activity [3]	Activity [11]	Efficacy [15]	Efficacy [18]
175 ng/mL	–	–	–	–	–	–	–	–	–	–	–	–	O=C(O)Cc1cccc(OCCCN(Cc2cccc(C(F)(F)F)c2Cl)CC(c2ccccc2)c2ccccc2)c1	Active	Active	–	–	–
–	> 1200 min	229 ng/mL	2440 ng·h/mL	inactive	Not Active	inactive	inactive	1020 ng/mL	53 nM	72 nM	580 nM	> 1000 nM	Cc1nc2c(C(F)(F)F)cccc2nc1-c1ccc(-c2cccc(S(C)(=O)=O)c2)cc1	–	–	51%	60%	7%
